Measured values reported in ChEMBL document CHEMBL4266054, “Kinase Inhibitors for Treatment of Cancer and Inflammation” (ACS Med Chem Lett, 2018).

Experiments:
[1] = molecular target: T1, Inhibitor of nuclear factor kappa-B kinase subunit epsilon (Homo sapiens) (UniProt Q14164); test: Inhibition of IKK-epsilon (unknown origin) using fluorescein-labelled DRHDSGLDSMKDE as substrate after 1 hr by TR-FRET assay
T1 sequence (whole entry): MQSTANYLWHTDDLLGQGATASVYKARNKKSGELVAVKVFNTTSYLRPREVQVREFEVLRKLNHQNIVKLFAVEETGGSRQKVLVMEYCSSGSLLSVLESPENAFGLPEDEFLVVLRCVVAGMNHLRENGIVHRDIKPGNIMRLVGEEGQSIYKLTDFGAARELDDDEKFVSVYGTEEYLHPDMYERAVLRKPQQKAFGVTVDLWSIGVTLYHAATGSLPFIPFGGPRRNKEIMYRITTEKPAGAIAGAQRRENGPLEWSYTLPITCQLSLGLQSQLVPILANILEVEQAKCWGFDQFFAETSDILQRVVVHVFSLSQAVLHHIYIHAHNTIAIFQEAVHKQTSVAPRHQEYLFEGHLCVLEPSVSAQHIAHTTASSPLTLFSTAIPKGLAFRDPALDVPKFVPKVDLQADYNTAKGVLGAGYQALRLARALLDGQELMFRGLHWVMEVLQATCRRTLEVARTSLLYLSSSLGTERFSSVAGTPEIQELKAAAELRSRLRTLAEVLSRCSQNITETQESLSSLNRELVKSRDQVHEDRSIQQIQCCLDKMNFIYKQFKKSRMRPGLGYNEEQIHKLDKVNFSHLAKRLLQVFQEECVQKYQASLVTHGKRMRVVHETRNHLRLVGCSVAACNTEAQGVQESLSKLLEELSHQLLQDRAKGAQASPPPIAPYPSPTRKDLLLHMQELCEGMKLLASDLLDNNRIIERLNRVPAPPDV

[2] = molecular target: T2, Serine/threonine-protein kinase TBK1 (Homo sapiens) (UniProt Q9UHD2); test: Inhibition of TBK1 (unknown origin) using fluorescein-labelled DRHDSGLDSMKDE as substrate after 1 hr by TR-FRET assay
T2 sequence (whole entry): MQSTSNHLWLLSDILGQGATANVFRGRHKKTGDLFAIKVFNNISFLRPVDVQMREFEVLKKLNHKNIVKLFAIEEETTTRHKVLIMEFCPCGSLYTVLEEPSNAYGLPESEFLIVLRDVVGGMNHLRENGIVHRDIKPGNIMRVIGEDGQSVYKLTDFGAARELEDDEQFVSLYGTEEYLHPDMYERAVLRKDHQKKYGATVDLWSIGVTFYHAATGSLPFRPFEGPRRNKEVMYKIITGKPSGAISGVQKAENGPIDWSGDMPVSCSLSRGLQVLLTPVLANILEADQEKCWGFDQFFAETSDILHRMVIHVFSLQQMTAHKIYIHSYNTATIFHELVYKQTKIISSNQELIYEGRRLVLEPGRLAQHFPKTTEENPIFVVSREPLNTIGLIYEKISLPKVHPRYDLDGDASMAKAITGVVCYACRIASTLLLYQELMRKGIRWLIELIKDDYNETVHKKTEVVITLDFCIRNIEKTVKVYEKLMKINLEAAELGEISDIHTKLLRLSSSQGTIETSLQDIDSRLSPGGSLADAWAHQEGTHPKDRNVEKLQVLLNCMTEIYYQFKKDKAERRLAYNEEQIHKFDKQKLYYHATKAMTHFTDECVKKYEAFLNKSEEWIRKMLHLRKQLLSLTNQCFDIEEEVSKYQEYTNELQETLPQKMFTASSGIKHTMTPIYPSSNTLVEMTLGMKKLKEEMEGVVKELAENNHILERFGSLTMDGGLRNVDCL

[3] = molecular target: Serine/threonine-protein kinase SIK2 (Homo sapiens) (UniProt Q9H0K1); test: Inhibition of human SIK2 using AMARAASAAALARRR as substrate in presence of [gamma33P]ATP by kinase hotspot assay
[4] = Half life in Balb/c mouse at 0.5 mg/kg, iv by mass spectrometry; type: ADME, organism-based; details: in vivo
[5] = Volume of distribution in Balb/c mouse at 0.5 mg/kg, iv by mass spectrometry; type: ADME, organism-based; details: in vivo

Chain of Serine/threonine-protein kinase SIK2 (Homo sapiens) (Q9H0K1 whole entry, looked up): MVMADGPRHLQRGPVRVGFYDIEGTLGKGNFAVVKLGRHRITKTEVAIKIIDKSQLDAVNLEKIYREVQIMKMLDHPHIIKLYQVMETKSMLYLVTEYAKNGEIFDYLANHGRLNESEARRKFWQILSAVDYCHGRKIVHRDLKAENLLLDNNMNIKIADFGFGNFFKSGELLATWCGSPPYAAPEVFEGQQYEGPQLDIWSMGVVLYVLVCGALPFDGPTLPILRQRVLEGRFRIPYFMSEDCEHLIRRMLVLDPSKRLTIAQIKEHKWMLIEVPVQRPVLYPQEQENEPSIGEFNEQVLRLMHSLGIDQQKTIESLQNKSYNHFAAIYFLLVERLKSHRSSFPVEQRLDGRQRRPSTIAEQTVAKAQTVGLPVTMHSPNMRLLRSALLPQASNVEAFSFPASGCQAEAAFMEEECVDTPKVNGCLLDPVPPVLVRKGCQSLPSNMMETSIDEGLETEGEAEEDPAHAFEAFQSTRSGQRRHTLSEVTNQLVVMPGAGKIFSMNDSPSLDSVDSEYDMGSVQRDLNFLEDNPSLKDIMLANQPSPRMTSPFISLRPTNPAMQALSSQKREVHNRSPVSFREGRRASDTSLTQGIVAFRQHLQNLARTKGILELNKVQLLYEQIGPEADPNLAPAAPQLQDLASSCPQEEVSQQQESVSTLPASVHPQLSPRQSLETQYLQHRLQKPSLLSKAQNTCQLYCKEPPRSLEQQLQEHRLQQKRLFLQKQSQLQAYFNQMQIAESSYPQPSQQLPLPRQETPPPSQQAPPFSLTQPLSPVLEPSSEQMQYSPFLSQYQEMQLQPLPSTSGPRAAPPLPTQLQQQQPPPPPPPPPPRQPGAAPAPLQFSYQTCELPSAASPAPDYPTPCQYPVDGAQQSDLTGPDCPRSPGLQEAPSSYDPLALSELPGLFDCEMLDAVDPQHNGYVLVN

| INH [1] | INH [2] | INH [3] | half-life [4] | Vd [5] | Structure (SMILES) |
| --- | --- | --- | --- | --- | --- |
| 16 nM | 9 nM | 7 nM |  |  | CCN1CCN(Cc2ccc(Nc3nccc(-c4cnc(N5CC[C@H](F)C5)c(C#N)c4)n3)cn2)CC1 |
| < 30 nM | < 30 nM |  | 30 min |  | N#Cc1cc(-c2ccnc(Nc3ccc(NC(=O)CN4CCOCC4)nc3)n2)cnc1N1CC[C@H](F)C1 |
| 21 nM | 20 nM |  |  |  | CCN1CCN(Cc2ccc(Nc3nccc(-c4cnc(N5CC[C@@H](F)C5)c(C#N)c4)n3)cn2)CC1 |
| < 15 nM | < 15 nM |  | 30 min | 0.3 L/kg | N#Cc1cc(-c2ccnc(Nc3ccc(CN4CCOCC4)nc3)n2)cnc1N1CC[C@H](F)C1 |
| < 15 nM | < 15 nM |  |  |  | N#Cc1cc(-c2ccnc(Nc3ccc(CN4CCNC(=O)C4)nc3)n2)cnc1N1CC[C@H](F)C1 |
| 24 nM | 17 nM |  |  |  | CN1CCN(Cc2ccc(Nc3nccc(-c4cnc(N5CC[C@H](F)C5)c(C#N)c4)n3)cn2)CC1 |
